Patent US8530489B2 (Vertex Pharmaceuticals Incorporated, priority 2006, dated 2013)

Biological target: PLK1 (Homo sapiens, UniProt P53350)
Assay: PLK1 Inhibition Assay I (radioactive-phosphate incorporation)
Assay type: biochemical
Conditions: Ki(app); PLK1 Inhibition Assay I or II (table does not say which)
Method in brief: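 Ki(app) values came from non-linear regression of initial rates after background subtraction, with phosphopeptide measured by phosphocellulose filter binding and scintillation counting. PLK1 at 2 nM was preincubated with compound (typically from 10 μM, 2-fold dilutions) for 10 min, then run 240 min at 25° C with 350 μM [γ-33P]ATP and 450 μM peptide substrate in HEPES pH 7.5 buffer.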

Sequence of PLK1 (P53350 whole entry): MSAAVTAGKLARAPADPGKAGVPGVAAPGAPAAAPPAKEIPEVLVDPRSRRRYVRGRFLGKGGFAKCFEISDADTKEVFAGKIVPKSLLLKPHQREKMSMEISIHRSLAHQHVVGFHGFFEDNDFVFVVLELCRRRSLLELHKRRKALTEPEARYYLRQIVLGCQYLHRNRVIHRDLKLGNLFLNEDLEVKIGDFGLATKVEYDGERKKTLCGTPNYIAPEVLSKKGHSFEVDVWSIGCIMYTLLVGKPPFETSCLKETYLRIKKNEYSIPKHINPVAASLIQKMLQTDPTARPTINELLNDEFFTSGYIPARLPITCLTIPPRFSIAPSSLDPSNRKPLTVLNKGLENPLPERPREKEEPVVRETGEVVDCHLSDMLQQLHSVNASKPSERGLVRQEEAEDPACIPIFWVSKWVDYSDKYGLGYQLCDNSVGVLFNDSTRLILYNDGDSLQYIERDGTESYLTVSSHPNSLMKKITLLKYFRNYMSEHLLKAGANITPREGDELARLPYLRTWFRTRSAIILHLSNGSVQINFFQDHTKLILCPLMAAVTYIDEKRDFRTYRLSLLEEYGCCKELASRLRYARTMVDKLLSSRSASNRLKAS

Structure (SMILES)	Ki [nM]
CC(C)(C)[C@@H](CO)Nc1ncc(C#N)c(-c2c[nH]c3ncc(C(F)(F)F)cc23)n1 [Compound I-111, 2-((S)-1-hydroxy-3,3-dimethylbutan-2-ylamino)-4-(5-(trifluoromethyl)-1H-pyrrolo[2,3-b]pyridin-3-yl)pyrimidine-5-carbonitrile]	< 3
CCOc1ccc(C(C)Nc2ncc(C#N)c(-c3c[nH]c4ncc(C(F)(F)F)cc34)n2)cc1 (centres unmarked) [Compound I-112, 2-(1-(4-ethoxyphenyl)ethylamino)-4-(5-(trifluoromethyl)-1H-pyrrolo[2,3-b]pyridin-3-yl)pyrimidine-5-carbonitrile]	< 3
N#Cc1cnc(NC(CO)c2cccnc2)nc1-c1c[nH]c2ncc(C(F)(F)F)cc12 (centres unmarked) [Compound I-113, 2-(2-hydroxy-1-(pyridin-3-yl)ethylamino)-4-(5-(trifluoromethyl)-1H-pyrrolo[2,3-b]pyridin-3-yl)pyrimidine-5-carbonitrile]	> 40
N#Cc1cnc(NC[C@H](O)CO)nc1-c1c[nH]c2ncc(C(F)(F)F)cc12 [Compound I-114, 2-((S)-2,3-dihydroxypropylamino)-4-(5-(trifluoromethyl)-1H-pyrrolo[2,3-b]pyridin-3-yl)pyrimidine-5-carbonitrile]	3 to 40
N#Cc1cnc(NC[C@@H](O)CO)nc1-c1c[nH]c2ncc(C(F)(F)F)cc12 [Compound I-115, 2-((R)-2,3-dihydroxypropylamino)-4-(5-(trifluoromethyl)-1H-pyrrolo[2,3-b]pyridin-3-yl)pyrimidine-5-carbonitrile]	3 to 40
CC[C@@H](C)[C@@H](CO)Nc1ncc(C#N)c(-c2c[nH]c3ncc(C(F)(F)F)cc23)n1 [Compound I-116, 2-((2S,3R)-1-hydroxy-3-methylpentan-2-ylamino)-4-(5-(trifluoromethyl)-1H-pyrrolo[2,3-b]pyridin-3-yl)pyrimidine-5-carbonitrile]	3 to 40
CN1CCC(CNc2ncc(C#N)c(-c3c[nH]c4ncc(C(F)(F)F)cc34)n2)CC1 [Compound I-117, 2-((1-methylpiperidin-4-yl)methylamino)-4-(5-(trifluoromethyl)-1H-pyrrolo[2,3-b]pyridin-3-yl)pyrimidine-5-carbonitrile]	> 40
CCN1CCC(CNc2ncc(C#N)c(-c3c[nH]c4ncc(C(F)(F)F)cc34)n2)CC1 [Compound I-118, 2-((1-ethylpiperidin-4-yl)methylamino)-4-(5-(trifluoromethyl)-1H-pyrrolo[2,3-b]pyridin-3-yl)pyrimidine-5-carbonitrile]	> 40
N#Cc1cnc(N[C@@H]2CC[C@H](CO)C2)nc1-c1c[nH]c2ncc(C(F)(F)F)cc12 [Compound I-119, 2-((1R,3S)-3-(hydroxymethyl)cyclopentylamino)-4-(5-(trifluoromethyl)-1H-pyrrolo[2,3-b]pyridin-3-yl)pyrimidine-5-carbonitrile]	3 to 40
N#Cc1cnc(NCc2cnc3[nH]ccc3c2)nc1-c1c[nH]c2ncc(C(F)(F)F)cc12 [Compound I-120, 2-((1H-pyrrolo[2,3-b]pyridin-5-yl)methylamino)-4-(5-(trifluoromethyl)-1H-pyrrolo[2,3-b]pyridin-3-yl)pyrimidine-5-carbonitrile]	3 to 40
CC(=O)Nc1ccc(C(C)Nc2ncc(C#N)c(-c3c[nH]c4ncc(C(F)(F)F)cc34)n2)cc1 (centres unmarked) [Compound I-121, N-(4-(1-(5-cyano-4-(5-(trifluoromethyl)-1H-pyrrolo[2,3-b]pyridin-3-yl)pyrimidin-2-ylamino)ethyl)phenyl)acetamide]	< 3
CC(Nc1ncc(C#N)c(-c2c[nH]c3ncc(C(F)(F)F)cc23)n1)c1ccc(O)c(Cl)c1 (centres unmarked) [Compound I-122, 2-(1-(3-chloro-4-hydroxyphenyl)ethylamino)-4-(5-(trifluoromethyl)-1H-pyrrolo[2,3-b]pyridin-3-yl)pyrimidine-5-carbonitrile]	< 3
CC(Nc1ncc(C#N)c(-c2c[nH]c3ncc(C(F)(F)F)cc23)n1)c1ccc(N2CCN(C(=O)OC(C)(C)C)CC2)cc1 (centres unmarked) [Compound I-123, tert-butyl 4-(4-(1-(5-cyano-4-(5-(trifluoromethyl)-1H-pyrrolo[2,3-b]pyridin-3-yl)pyrimidin-2-ylamino)ethyl)phenyl)piperazine-1-carboxylate]	3 to 40
CC(Nc1ncc(C#N)c(-c2c[nH]c3ncc(C(F)(F)F)cc23)n1)c1ccc(N2CCOCC2)cc1 (centres unmarked) [Compound I-125, 2-(1-(4-morpholinophenyl)ethylamino)-4-(5-(trifluoromethyl)-1H-pyrrolo[2,3-b]pyridin-3-yl)pyrimidine-5-carbonitrile]	< 3
CC(C)[C@H](CN1CCOCC1)Nc1ncc(C#N)c(-c2c[nH]c3ncc(C(F)(F)F)cc23)n1 [Compound I-128, 2-((R)-3-methyl-1-morpholinobutan-2-ylamino)-4-(5-(trifluoromethyl)-1H-pyrrolo[2,3-b]pyridin-3-yl)pyrimidine-5-carbonitrile]	3 to 40
C[C@@H](Nc1ncc(C#N)c(-c2c[nH]c3ncc(C(F)(F)F)cc23)n1)c1ccc(N2CCN(Cc3ccccc3)CC2)cc1 [Compound I-130, 2-((R)-1-(4-(4-benzylpiperazin-1-yl)phenyl)ethylamino)-4-(5-(trifluoromethyl)-1H-pyrrolo[2,3-b]pyridin-3-yl)pyrimidine-5-carbonitrile]	< 3
C[C@H](CN1CCOCC1)Nc1ncc(C#N)c(-c2c[nH]c3ncc(C(F)(F)F)cc23)n1 [Compound I-132, 2-((R)-1-morpholinopropan-2-ylamino)-4-(5-(trifluoromethyl)-1H-pyrrolo[2,3-b]pyridin-3-yl)pyrimidine-5-carbonitrile]	3 to 40

The remaining lines, values ahead:

Ki [nM]	Structure (SMILES)
< 3	C[C@@H](Nc1ncc(C#N)c(-c2c[nH]c3ncc(C(F)(F)F)cc23)n1)c1ccc(N(C)C)cc1 [Compound I-133, 2-((R)-1-(4-(dimethylamino)phenyl)ethylamino)-4-(5-(trifluoromethyl)-1H-pyrrolo[2,3-b]pyridin-3-yl)pyrimidine-5-carbonitrile]
< 3	CC(=O)N1CCC([C@@H](C)Nc2ncc(C#N)c(-c3c[nH]c4ncc(C(F)(F)F)cc34)n2)CC1 [Compound I-134, 2-((R)-1-(1-acetylpiperidin-4-yl)ethylamino)-4-(5-(trifluoromethyl)-1H-pyrrolo[2,3-b]pyridin-3-yl)pyrimidine-5-carbonitrile]
3 to 40	CC(=O)N1CCC([C@H](C)Nc2ncc(C#N)c(-c3c[nH]c4ncc(C(F)(F)F)cc34)n2)CC1 [Compound I-135, 2-((S)-1-(1-acetylpiperidin-4-yl)ethylamino)-4-(5-(trifluoromethyl)-1H-pyrrolo[2,3-b]pyridin-3-yl)pyrimidine-5-carbonitrile]
< 3	C[C@@H](Nc1ncc(C#N)c(-c2c[nH]c3ncc(C(F)(F)F)cc23)n1)c1ccc(NS(C)(=O)=O)cc1 [Compound I-136, N-(4-((1R)-1-(5-cyano-4-(5-(trifluoromethyl)-1H-pyrrolo[2,3-b]pyridin-3-yl)pyrimidin-2-ylamino)ethyl)phenyl)methanesulfonamide]
< 3	C[C@@H](Nc1ncc(C#N)c(-c2c[nH]c3ncc(C(F)(F)F)cc23)n1)c1ccc(NC(=O)C2CC2)cc1 [Compound I-137, N-(4-((1R)-1-(5-cyano-4-(5-(trifluoromethyl)-1H-pyrrolo[2,3-b]pyridin-3-yl)pyrimidin-2-ylamino)ethyl)phenyl)cyclopropanecarboxamide]
< 3	CC(Nc1ncc(C#N)c(-c2c[nH]c3ncc(C(F)(F)F)cc23)n1)c1ccc(N2CCOCC2)nc1 (centres unmarked) [Compound I-138, 2-(1-(6-morpholinopyridin-3-yl)ethylamino)-4-(5-(trifluoromethyl)-1H-pyrrolo[2,3-b]pyridin-3-yl)pyrimidine-5-carbonitrile]
< 3	CC(C)N1CCN(c2ccc([C@@H](C)Nc3ncc(C#N)c(-c4c[nH]c5ncc(C(F)(F)F)cc45)n3)cc2)CC1 [Compound I-140, 2-((R)-1-(4-(4-isopropylpiperazin-1-yl)phenyl)ethylamino)-4-(5-(trifluoromethyl)-1H-pyrrolo[2,3-b]pyridin-3-yl)pyrimidine-5-carbonitrile]
< 3	COC(=O)Nc1ccc([C@@H](C)Nc2ncc(C#N)c(-c3c[nH]c4ncc(C(F)(F)F)cc34)n2)cc1 [Compound I-141, methyl 4-((1R)-1-(5-cyano-4-(5-(trifluoromethyl)-1H-pyrrolo[2,3-b]pyridin-3-yl)pyrimidin-2-ylamino)ethyl)phenylcarbamate]
< 3	CC(Nc1ncc(C#N)c(-c2c[nH]c3ncc(C(F)(F)F)cc23)n1)c1ccc(N(C)C)nc1 (centres unmarked) [Compound I-143, 2-(1-(6-(dimethylamino)pyridin-3-yl)ethylamino)-4-(5-(trifluoromethyl)-1H-pyrrolo[2,3-b]pyridin-3-yl)pyrimidine-5-carbonitrile]
< 3	CCC(=O)Nc1ccc([C@@H](C)Nc2ncc(C#N)c(-c3c[nH]c4ncc(C(F)(F)F)cc34)n2)cc1 [Compound I-144, N-(4-((1R)-1-(5-cyano-4-(5-(trifluoromethyl)-1H-pyrrolo[2,3-b]pyridin-3-yl)pyrimidin-2-ylamino)ethyl)phenyl)propionamide]
< 3	C[C@@H](Nc1ncc(C#N)c(-c2c[nH]c3ncc(C(F)(F)F)cc23)n1)c1ccc(N2CCCC2=O)cc1 [Compound I-145, 2-((R)-1-(4-(2-oxopyrrolidin-1-yl)phenyl)ethylamino)-4-(5-(trifluoromethyl)-1H-pyrrolo[2,3-b]pyridin-3-yl)pyrimidine-5-carbonitrile]
< 3	C[C@@H](Nc1ncc(C#N)c(-c2c[nH]c3ncc(C(F)(F)F)cc23)n1)c1ccc(O[C@H]2CCN(C)C2)cc1 [Compound I-146, 2-((R)-1-(4-((S)-1-methylpyrrolidin-3-yloxy)phenyl)ethylamino)-4-(5-(trifluoromethyl)-1H-pyrrolo[2,3-b]pyridin-3-yl)pyrimidine-5-carbonitrile]
